Assay results from publication PMC11277004, “Di- and Triselenoesters—Promising Drug Candidates for the Future Therapy of Triple-Negative Breast Cancer” (International Journal of Molecular Sciences, 2024).
Read-outs that look alike come from different tables or passages of the source.

Experiments:
[1] = system: MDA-MB-231 triple-negative breast cancer cells; assay: MTT cytotoxicity test, MDA-MB-231; assay type: cell-based, human; conditions: MDA-MB-231, 24 h incubation, read-out: IC50, cell viability (MTT)
Description: (§1) MCF-7 and MDA-MB-231 human breast cancer cell lines, as well as MCF-10A normal human breast epithelial cells, were acquired from the American Type Culture Collection (ATCC, Manassas, VA, USA). The characteristics of the breast cancer cell lines used in this study are compared in Table 1. MCF-7 and MDA-MB-231 cells were cultured in Dulbecco’s modified Eagle’s medium (Gibco, San Diego, CA, USA), while MCF-10A cells were cultured in the mammary epithelial cell growth medium with the following supplements: BPE, hEGF, insulin, hydrocortisone, GA-1000 (Lonza, Basel, Switzerland). All media were complemented by 10% of fetal bovine serum (FBS) and 1% of the following antibiotics: penicillin and streptomycin (both Gibco, San Diego, CA, USA). The cells were maintained in an incubator that provides the optimal growth conditions for the cell culture: 5% CO2, 37 °C, and humidity in a range of 90–95%. The cells were cultured in 100 mm plates (Sarstedt, Newton, NC, USA). Subsequently, after obtaining a subconfluent cell culture, the cells were detached with 0.05% trypsin with 0.02% EDTA (Gibco, San Diego, CA, USA). […] In this study, cells that obtained 80% confluence were used. The MTT assay was used to determine the cytotoxic effects of the compounds in the study on MCF-7 and MDA-MB-231 breast cancer cells as well as MCF-10A normal human breast epithelial cells based on Carmichael’s method. […] After this time, the medium was removed, and the cell monolayer was washed with warm phosphate-buffered saline (PBS) without calcium and magnesium. In the next step, PBS and MTT solution in PBS (5 mg/mL) were added to each well to obtain a final MTT concentration of 0.5 mg/mL, and then the cells were incubated for 4 h (37 °C temperature, 5% CO2, 90–95% humidity). After the incubation period, the contents of each well were removed, 1 mL of DMSO was added to dissolve the formazan, and then the plate with the added DMSO was mixed for 5–10 min on a microplate shaker (Boeco, Hamburg, Germany). Then, 10 µL of Sorensen’s glycine buffer (a solution of 0.1 M glycine and 0.1 M sodium chloride adjusted to pH 10.5 with 0.1 M sodium hydroxide) was added. The absorbance of the obtained solution was immediately measured at a wavelength of λ = 570 nm using a Thermo Scientific Evolution 201 UV–VIS spectrophotometer (Thermo Fisher Scientific, Waltham, MA, USA). The absorbance result obtained in the control cells (without the addition of the tested compounds) was taken as 100%, while the viability of cells incubated with the tested compounds was presented as a percentage of the control value.

[2] = system: MCF-10A normal human breast epithelial cells; assay: MTT cytotoxicity test, MCF-10A; assay type: cell-based; conditions: 24 h incubation, read-out: IC50, cell viability (MTT)
Description: as §1

[3] = system: MDA-MB-231 breast cancer cells; assay: Mitochondrial membrane potential (JC-1, flow cytometry), MDA-MB-231; assay type: cell-based, human; conditions: 24 h
Description: The entire cell staining and cytometric analysis procedures were performed according to the instructions provided with the kit. In the first step, the cells (1 × 10^6 cells/sample) were washed and resuspended in 0.5 mL of buffer containing 10 µg/mL JC-1 dye. Incubation was carried out for 15 min at room temperature, protected from light. Afterward, the cells were washed twice with buffer, resuspended in 0.5 mL PBS, and immediately analyzed using a flow cytometer (BD FACSCanto II; 10,000 events measured) and the FACSDiva 6.0 software (BD Biosciences Systems, San Jose, CA, USA) to count the percentage of cells with reduced ΔΨm. The equipment was calibrated with the BD Cytometer Setup and Tracking Beads (BD Biosciences, San Diego, CA, USA).

[4] = system: caspase 7; assay: Caspase 3/7 activity (FAM-FLICA, flow cytometry), MCF-7; assay type: cell-based, human; conditions: MCF-7 (lack caspase 3), 24 h
Description: The FAM-FLICA® Caspase Assay kits (all from ImmunoChemistry Technologies, Bloomington, MN, USA) and flow cytometer (BD FACSCanto II, BD Biosciences Systems, San Jose, CA, USA) were used to evaluate the activity of caspase 3/7, 8, and 9. MCF-7 and MDA-MB-231 cells were treated with selenoesters under the study (EDAG-1 and EDAG-8) and a reference agent (cisplatin) at two different concentrations (0.5 and 1 µM; treatment duration: 24 h). Following this, cells were collected, washed twice with cold PBS, and resuspended in an Apoptosis Wash Buffer to a final concentration of 5 × 10^5 cells/mL. In the next step, 290 µL each of cell suspension was taken and transferred into tubes. Then 10 µL of FLICA solution diluted immediately before use (1:5 v/v, using PBS) was added to the cells, mixed by pipetting, and incubated in the dark for 1 h at 37 °C. After this time, the cells were washed twice with 2 mL Apoptosis Wash Buffer, centrifuged, and resuspended in 300 µL of the buffer. Thus, prepared samples were immediately analyzed using a BD FACSCanto II flow cytometer (10,000 events) with the FACSDiva 6.0 software (both from BD Biosciences Systems, San Jose, CA, USA). The equipment calibration was carried out using the BD Cytometer Setup and Tracking Beads (BD Biosciences, San Diego, CA, USA).

[5] = system: LC3A/B; assay: LC3A/B protein level by flow cytometry, MCF-7; assay type: cell-based, human; conditions: 24 h
Description: For this purpose, Akt (PE), Bax (FITC), Bcl-2 (Alexa Fluor® 647), LC3A/B (Alexa Fluor® 488), and p53 (Alexa Fluor® 488) antibodies conjugated to different fluorochromes (all from Cell Signaling Technology, Beverly, MA, USA) were utilized. Each assay was performed according to the manufacturer's protocol available on their website. After incubation with the tested compounds, the cells were centrifuged, resuspended in 4% formaldehyde (100 μL/1 × 10^6 cells), and fixed for 15 min at room temperature. Afterward, to remove the formaldehyde, the cells were washed by centrifugation with excess PBS and the permeabilization step was triggered. For this purpose, ice-cold 90% methanol was added to the pre-chilled cell pellet, gently vortexed, and incubated for 1 h on ice. Later, the cells were washed by centrifugation with excess PBS again, resuspended in 100 μL of 1:100 diluted primary antibody (stain buffer was used for dilution), and incubated for 1 h at room temperature in the dark. After incubation, the cells were washed, resuspended in 300 μL PBS, and immediately tested with a flow cytometer (BD FACSCanto II, BD Biosciences Systems, San Jose, CA, USA; 10,000 events measured). The obtained results were analyzed using the FACSDiva 6.0 software (BD Biosciences Systems, San Jose, CA, USA). In the case of the p53 protein, the MRF values were obtained first during the flow cytometer readout utilizing FACSDiva software and later analyzed using FCS Express 7 (De Novo Software, Pasadena, CA, USA). The equipment calibration was performed using the BD Cytometer Setup and Tracking Beads (BD Biosciences, San Diego, CA, USA).

| SMILES | IC50 [1] [nM] | IC50 [2] [nM] | Decreased ΔΨm ± SD (cells) ([3]; MDA-MB-231, 0.5 μM) [%] | Decreased ΔΨm ± SD (cells) ([3]; MDA-MB-231, 1 μM) [%] | Active caspase 7 ± SD (cells) ([4]; 0.5 μM) [%] | Active caspase 7 ± SD (cells) ([4]; 1 μM) [%] | LC3A/B positive cells ± SD ([5]; MCF-7, 0.5 μM) [%] | LC3A/B positive cells ± SD ([5]; MCF-7, 1 μM) [%] | IC50 ([1]; Homo sapiens) [nM] | IC50 ([2]; Homo sapiens) [nM] |
| --- | --- | --- | --- | --- | --- | --- | --- | --- | --- | --- |
| N.N.[Cl][Pt][Cl] [Cisplatin, reference compound] | > 5000 | > 5000 | 11.2 ± 0.9 | 12.9 ± 0.2 | 4.3 ± 0.3 | 4.6 ± 0.3 | 3.3 ± 0.5 | 3.5 ± 0.4 |  |  |
| CC(=O)C[Se]C(=O)c1ccc(C(=O)[Se]CC(C)=O)cc1 [EDAG-1, Se,Se-bis(2-oxopropyl) benzene-1,4-bis(carboselenoate)] |  |  | 29.2 ± 2.2 | 72.1 ± 0.9 | 5.7 ± 0.5 | 6.9 ± 0.5 | 9.9 ± 0.9 | 12.0 ± 1.4 | 710 ± 60 | 410 ± 30 |
| CC(=O)C[Se]C(=O)c1cc(C(=O)[Se]CC(C)=O)cc(C(=O)[Se]CC(C)=O)c1 [EDAG-8, Se,Se,Se-tris-(2-oxopropyl) benzene-1,3,5-tris-(carboxyselenoate)] |  |  | 55.0 ± 3.0 | 92.5 ± 0.7 | 7.4 ± 0.8 | 16.3 ± 2.6 | 11.9 ± 1.1 | 17.4 ± 1.3 | 530 ± 30 | 510 ± 20 |
